# Reference: article PMC5537066, “Dimerization facilitates the conformational transitions for bacterial phosphotransferase enzyme I autophosphorylation in an allosteric manner” (FEBS Open Bio, 2017)
# Key:
# Experiment in all cases: isothermal titration calorimetry
# Assay type in all cases: binding
# Conditions in all cases: read-out: K D (μS)
# EI (EIA, EIA(G356S)) = biological target: T1, EI (EIA, EIA(G356S)) (Escherichia coli, UniProt P08839, G356S/H189A)
# T1 construct: gene ptsI; full length 1-575; pET11 or pET15b with N-terminal His6 tag; E. coli BL21star(DE3); dimer with PEP
# Description: isothermal titration calorimetry on EI (EIA, EIA(G356S))
# EIA^ΔEINα (G356S) = biological target: T2, EIA^ΔEINα (G356S) (Escherichia coli, UniProt P08839, DEL22-145/G356S/H189A)
# T2 construct: gene ptsI; EI(1-21, 146-575), EINalpha subdomain deleted; pET11 or pET15b with N-terminal His6 tag; E. coli BL21star(DE3)
# Description: isothermal titration calorimetry on EIA^ΔEINα (G356S)
# EIC (EIC(G356S)) = biological target: T3, EIC (EIC(G356S)) (Escherichia coli, UniProt P08839, G356S)
# T3 construct: gene ptsI; pET11 or pET15b with N-terminal His6 tag; E. coli BL21star(DE3)
smiles,measurement,setting,value
C=C(OP(=O)(O)O)C(=O)O [PEP],Kd,"EI (EIA, EIA(G356S))",14 ± 0.9 µM
same,Kd,EIA^ΔEINα (G356S),1.3 ± 0.1 µM
same,Kd,EIC (EIC(G356S)),310 ± 100 µM
